Data reported in US20250388575A1, “HETEROBIFUNCTIONAL COMPOUNDS AND METHODS OF TREATING DISEASE” (Halda Therapeutics OpCo, Inc., priority 2022, published 2025).
Read-outs that look alike come from different tables or passages of the source.

How the values were obtained:
[1] = tested on: T-Rex 293 cell line SC3 cells lacking increased expression of androgen receptor protein; experiment: Cellular growth inhibition, T-Rex 293 SC3 cells lacking increased androgen receptor expression (no doxycycline), CellTiter-Glo; assay type: cell-based
Method: (§1) The following types of cells were prepared for this experiment: (i) a T-Rex 293 cell line having increased expression of androgen receptor protein due to exposure to doxycycline and (ii) a T-Rex 293 cell line lacking increased expression of androgen receptor protein. Ability of the test compounds to inhibit proliferation of the foregoing cell types was evaluated according to the procedures set forth below.
(§2) The doxycycline-inducible androgen receptor protein expressing cell line was established using the following protocol: T-Rex 293 cells were purchased from Invitrogen (Cat #R71007) and transfected using Lipofectamine 2000 with the wild-type androgen receptor protein sequence cloned into the pcDNA4/TO vector. Transfected cells were selected using 400 μg/mL Zeocin (Invitrogen Cat #R25001). Following selection, single clones were raised and maintained in Dulbecco's Modified Eagle Medium (DMEM) supplemented with 10% w/w Tetracycline-free fetal bovine serum (FBS) and 250 μg/mL Zeocin. Clones were analyzed for expression of androgen receptor protein in the presence and absence of 10 ng/ml doxycycline (Sigma Cat #D9891), and a single doxycycline-inducible clone (hereinafter “SC3”) was selected for use in downstream assays.
(§3) The SC3 cells were seeded on poly-D-lysine coated, black clear-bottom 384-well plates at 2500/well, in 25 μL Phenol Red Free Dulbecco's Modified Eagle Medium (DMEM) supplemented with 10% w/w charcoal-dextran treated fetal bovine serum (FBS) and 1% w/w pen-strep, with or without 10 ng/mL doxycycline. Pen-Strep is a commercially available mixture of penicillin G and streptomycin, which is used in mammalian cell culture media to prevent bacterial contamination. Phenol Red Free Dulbecco's Modified Eagle Medium (DMEM) supplemented with 10% w/w charcoal-dextran treated fetal bovine serum (FBS) and 1% w/w pen-strep, with or without 10 ng/mL doxycycline is herein referred to as Treatment Medium. Following seeding of cells in the plates, the plates were spun at 300×g for 30 seconds, then equilibrated to room temperature for 30 minutes, and then deposited in a humidified tissue culture incubator maintained at 37° C. with 5% CO2.
(§4) At 24 hours after seeding of the cells, dilutions of test compound were prepared in DMSO and dissolved in Treatment Medium, to achieve a final DMSO concentration of 0.5% w/w, thereby providing the Test Compound Solution. A 25 μL aliquot of the Test Compound Solution was added to cells in the well plates. An equal volume of a solution containing DMSO and Treatment Medium was used as a negative control. Following treatment of cells with Test Compound Solution or said equal volume of a solution containing DMSO and Treatment Medium, the plates were spun at 300×g for 30 seconds, and then left in an incubator for 72 hours.
(§5) At the end of the treatment duration, cell viability was quantified with CellTiter-Glo 2.0 reagent (Promega Cat #G9243). For this purpose, plates were equilibrated to room temperature for 30 minutes, and then 25 μL of CellTiter-Glo 2.0 reagent was added to cells in the plate wells. Plates were then agitated on a shaker for two minutes at 500 rpm and subsequently incubated at room temperature for 10 minutes. Following incubation, the plates were spun at 3000×g for 30 seconds, then sealed with an optical adhesive cover, and luminescence readings were measured with an EnVision Plate Reader.
(§6) Data was normalized using zero luminescence for baseline. A four-parameter non-linear regression curve fit was applied to dose-response data in GraphPad Prism data analysis software to determine the half-maximal growth inhibitory concentration (GI50) for each test compound.

[2] = tested on: VCaP cells; experiment: Cellular growth inhibition assay for VCaP cells, CellTiter-Glo; assay type: cell-based, human
Method: VCaP cells were purchased from American Type Cell Culture (ATCC Cat #CRL2876) and then seeded on poly-D-lysine coated, black clear-bottom 384-well plates at 5000/well in 25 μL Dulbecco's Modified Eagle Medium (DMEM) supplemented with 10% w/w Fetal bovine serum (FBS) and 1% w/w Pen-Strep. Pen-Strep is a commercially available mixture of penicillin G and streptomycin, which is used in mammalian cell culture media to prevent bacterial contamination. Dulbecco's Modified Eagle Medium (DMEM) supplemented with 10% w/w fetal bovine serum (FBS) and 1% w/w Pen-Strep is herein referred to as Treatment Medium. Following seeding of cells in the plates, the plates were spun at 300×g for 30 seconds, then equilibrated to room temperature for 30 minutes, and then deposited in a humidified tissue culture incubator maintained at 37° C. with 5% CO2.
as §4, §5, §6

[3] = tested on: T-Rex 293 cell line SC3 cells having increased expression of androgen receptor protein; experiment: Cellular growth inhibition, T-Rex 293 SC3 cells with increased androgen receptor expression (doxycycline), CellTiter-Glo; assay type: cell-based
Method: as §1, §2, §3, §4, §5, §6

[4] = T-Rex 293 SC3 cells lacking increased androgen receptor expression (not exposed to doxycycline), 72 hours, CellTiter-Glo, read-out: GI50
[5] = Homo sapiens, VCaP cells, 72 hours, CellTiter-Glo, read-out: GI50
[6] = T-Rex 293 SC3 cells with increased androgen receptor expression (exposed to 10 ng/mL doxycycline), 72 hours, CellTiter-Glo, read-out: GI50
[7] = VCaP cells, 72 hours, CellTiter-Glo, read-out: GI50

Row | GI50 [2, 5] [nM] | GI50 [2, 7] [nM] | Structure (SMILES) | GI50 [1, 4] [nM] | GI50 [3, 6] [nM] | GI50 ([1]; 72 h) [nM] | GI50 ([2]; Homo sapiens, VCaP, 72 h) [nM] | GI50 ([3]; 72 h) [nM]
1 | > 3000 |  | Cn1cc(-c2cc(NC(=O)CCC3CCN(c4ccc(C(=O)NC5CCC(Oc6ccc(C#N)c(Cl)c6)CC5)nn4)CC3)ccc2Oc2ccc(F)cc2F)c2cc[nH]c2c1=O (stereo not drawn) [I-212, N-[4-(3-chloro-4-cyano-phenoxy)cyclohexyl]-6-[4-[3-[4-(2,4-difluorophenoxy)-3-(6-methyl-7-oxo-1H-pyrrolo[2,3-c]pyridin-4-yl)anilino]-3-oxo-propyl]-1-piperidyl]pyridazine-3-carboxamide] | > 3000 | < 500 |  |  | 
2 |  | > 3000 | Cn1cc(-c2cc(NC(=O)CCCCCOC3CCN(c4ccc(C(=O)N[C@H]5CC[C@H](Oc6ccc(C#N)c(Cl)c6)CC5)nn4)CC3)ccc2Oc2ccc(F)cc2F)c2cc[nH]c2c1=O [I-215] | 500 to 1500 | < 500 |  |  | 
3 | < 500 |  | Cn1cc(-c2ccccc2Oc2ccc(OCC3CCN(c4ccc(C(=O)N[C@H]5CC[C@H](Oc6ccc(C#N)c(Cl)c6)CC5)nn4)CC3)cc2)c2cc[nH]c2c1=O [I-255, N-[4-(3-chloro-4-cyano-phenoxy)cyclohexyl]-6-[4-[[4-[2-(6-methyl-7-oxo-1H-pyrrolo[2,3-c]pyridin-4-yl)phenoxy]phenoxy]methyl]-1-piperidyl]pyridazine-3-carboxamide] | > 3000 | < 500 |  |  | 
4 | 500 to 1500 |  | Cn1cc(-c2cc(C(C)(C)O)ccc2Cc2ccc(CCC3CCN(c4ccc(C(=O)NC5CCC(Oc6ccc(C#N)c(Cl)c6)CC5)nn4)CC3)cc2)c2cc[nH]c2c1=O (stereo not drawn) [I-205, N-[4-(3-chloro-4-cyano-phenoxy)cyclohexyl]-6-[4-[2-[4-[[4-(1-hydroxy-1-methyl-ethyl)-2-(6-methyl-7-oxo-1H-pyrrolo[2,3-c]pyridin-4-yl)phenyl]methyl]phenyl]ethyl]-1-piperidyl]pyridazine-3-carboxamide] | > 3000 | < 500 |  |  | 
5 | < 500 |  | CCS(=O)(=O)c1ccc(-c2cn(C)c(=O)c3[nH]ccc23)c(-n2cc(CCC3CCN(c4ccc(C(=O)NC5CCC(Oc6ccc(C#N)c(Cl)c6)CC5)nn4)CC3)ncc2=O)c1 (stereo not drawn) [I-238, N-[4-(3-chloro-4-cyano-phenoxy)cyclohexyl]-6-[4-[2-[4-[5-ethylsulfonyl-2-(6-methyl-7-oxo-1H-pyrrolo[2,3-c]pyridin-4-yl)phenyl]-5-oxo-pyrazin-2-yl]ethyl]-1-piperidyl]pyridazine-3-carboxamide] | > 3000 | > 3000 |  |  | 
6 | < 500 |  | CCS(=O)(=O)c1ccc(Oc2ccc(CCC3CCN(c4ccc(C(=O)NC5CCC(Oc6ccc(C#N)c(Cl)c6)CC5)nn4)CC3)c(F)c2)c(-c2cn(C)c(=O)c3ccccc23)c1 (stereo not drawn) [I-243, N-[4-(3-chloro-4-cyano-phenoxy)cyclohexyl]-6-[4-[2-[4-[4-ethylsulfonyl-2-(2-methyl-1-oxo-4-isoquinolyl)phenoxy]-2-fluoro-phenyl]ethyl]-1-piperidyl]pyridazine-3-carboxamide] | > 3000 | < 500 |  |  | 
7 | < 500 |  | Cn1cc(-c2cc(Br)ccc2Oc2ccc(CCC3CCN(c4ccc(C(=O)NC5CCC(Oc6ccc(C#N)c(Cl)c6)CC5)nn4)CC3)cc2)c2cc[nH]c2c1=O (stereo not drawn) [I-241, 6-[4-[2-[4-[4-bromo-2-(6-methyl-7-oxo-1H-pyrrolo[2,3-c]pyridin-4-yl)phenoxy]phenyl]ethyl]-1-piperidyl]-N-[4-(3-chloro-4-cyano-phenoxy)cyclohexyl]pyridazine-3-carboxamide] | > 3000 | < 500 |  |  | 

Further lines, the compound ahead of its results:

Row | Structure (SMILES) | GI50 [2, 5] [nM] | GI50 [2, 7] [nM] | GI50 [1, 4] [nM] | GI50 [3, 6] [nM] | GI50 ([1]; 72 h) [nM] | GI50 ([2]; Homo sapiens, VCaP, 72 h) [nM] | GI50 ([3]; 72 h) [nM]
8 | CCS(=O)(=O)Nc1ccc(Oc2cccc(OCCCC3CCN(c4ccc(C(=O)NC5CCC(Oc6ccc(C#N)c(Cl)c6)CC5)nn4)CC3)c2F)c(-c2cn(C)c(=O)c3[nH]ccc23)c1 (stereo not drawn) [I-18] | < 500 |  | < 500 | < 500 |  |  | 
9 | CCS(=O)(=O)Nc1ccc(Oc2cccc(CCOC3CCN(c4ccc(C(=O)N[C@H]5CC[C@H](Oc6ccc(C#N)c(Cl)c6)CC5)nn4)CC3)c2F)c(-c2cn(C)c(=O)c3[nH]ccc23)c1 [I-11] | < 500 |  | < 500 | < 500 |  |  | 
10 | Cn1cc(-c2cc(C(C)(C)O)ccc2Oc2ccc(CCN3CC4(C3)CN(c3ccc(C(=O)N[C@H]5CC[C@H](Oc6ccc(C#N)c(Cl)c6)CC5)nn3)C4)cc2)c2cc[nH]c2c1=O [I-121] |  | < 500 | 500 to 1500 | < 500 |  |  | 
11 | CCS(=O)(=O)c1ccc(Oc2cccc(OCCOC3CCN(c4cnc(C(=O)N[C@H]5CC[C@H](Oc6ccc(C#N)c(Cl)c6)CC5)cn4)CC3)c2F)c(-c2cn(C)c(=O)c3[nH]ccc23)c1 [I-32] | < 500 |  | < 500 | < 500 |  |  | 
12 | Cn1cc(-c2cc(C(C)(C)O)ccc2OC2CC(OCC3CCN(c4ccc(C(=O)NC5CCC(Oc6ccc(C#N)c(Cl)c6)CC5)nn4)CC3)C2)c2ccccc2c1=O (stereo not drawn) [I-247, N-[4-(3-chloro-4-cyano-phenoxy)cyclohexyl]-6-[4-[[3-[4-(1-hydroxy-1-methyl-ethyl)-2-(2-methyl-1-oxo-4-isoquinolyl)phenoxy]cyclobutoxy]methyl]-1-piperidyl]pyridazine-3-carboxamide] | < 500 |  | > 3000 | < 500 |  |  | 
13 | CCS(=O)(=O)Nc1ccc(Oc2cccc(CCCN3CCN(c4ccc(C(=O)N[C@H]5CC[C@H](Oc6ccc(C#N)c(Cl)c6)CC5)nn4)CC3)c2F)c(-c2cn(C)c(=O)c3[nH]ccc23)c1 [I-13] | < 500 |  | < 500 | < 500 |  |  | 
14 | Cn1cc(-c2cc(C(C)(C)O)ccc2Oc2ccc(CC3CC4(C3)CN(c3ccc(C(=O)N[C@H]5CC[C@H](Oc6ccc(C#N)c(Cl)c6)CC5)nn3)C4)cc2)c2cc[nH]c2c1=O [I-118] | < 500 |  | < 500 | < 500 |  |  | 
15 | CCS(=O)(=O)Nc1ccc(Oc2cccc(OCCN3CCN(c4ccc(C(=O)N[C@H]5CC[C@H](Oc6ccc(C#N)c(Cl)c6)CC5)nn4)CC3)c2F)c(-c2cn(C)c(=O)c3[nH]ccc23)c1 [I-14] | < 500 |  | < 500 | < 500 |  |  | 
16 | Cn1cc(-c2cc(C(C)(C)O)ccc2Oc2cccc(N3CC(N(C4CC4)C4CCN(c5ccc(C(=O)N[C@H]6CC[C@H](Oc7ccc(C#N)c(Cl)c7)CC6)nn5)CC4)C3)c2F)c2cc[nH]c2c1=O [I-145] |  | < 500 | > 3000 | < 500 |  |  | 
17 | CCS(=O)(=O)Nc1ccc(Oc2cccc(CCCOC3CCN(c4ccc(C(=O)N[C@H]5CC[C@H](Oc6ccc(C#N)c(Cl)c6)CC5)nn4)CC3)c2F)c(-c2cn(C)c(=O)c3[nH]ccc23)c1 [I-37, N-[4-(3-chloro-4-cyano-phenoxy)cyclohexyl]-6-[4-[3-[3-[4-(ethylsulfonylamino)-2-(6-methyl-7-oxo-1H-pyrrolo[2,3-c]pyridin-4-yl)phenoxy]-2-fluoro-phenyl]propoxy]-1-piperidyl]pyridazine-3-carboxamide] |  |  |  |  | < 500 | < 500 | < 500
18 | CCS(=O)(=O)c1ccc(Oc2cccc(CCCN3CCN(c4ccc(C(=O)N[C@H]5CC[C@H](Oc6ccc(C#N)c(Cl)c6)CC5)nn4)CC3)c2F)c(-c2cn(C)c(=O)c3[nH]ccc23)c1 [I-62] |  | < 500 | < 500 | < 500 |  |  | 
